Measurements published in patent publication US20150072391A1, “ETHANOL PRODUCTION IN ENGINEERED YEAST” (Massachusetts Institute of Technology, priority 2013, published 2015).

Columns and labels:
yeast = assay: Fermentation in synthetic media with cellulosic hydrolysate inhibitors; type: cell-based
Method: To determine whether elevated K^+ and pH can overcome the toxicity in acid hydrolysates of cellulosic biomass, fermentation experiments were performed using synthetic lab media supplemented with the known major inhibitors (e.g., acetic acid, furfural and hydroxymethylfurfural (HMF)).
All concentrations were then increased by a factor of four to 120 mM (FIG. 23B), far above what has been reported in any hydrolysate. […] Raising K^+ and pH then boosted production by another 54%.

[1] = test system: S288C, PE-2, Ethanol Red, Kyokai 7; assay: Glucose fermentation of laboratory and industrial yeast strains; type: cell-based, Saccharomyces cerevisiae; settings: K—Pi supplementation, laboratory prototroph and auxotroph and industrial strains
Method: (§1) Pre-fermentation cultures were grown until saturation and their cell densities determined by absorbance at 600 nm of an appropriate dilution made using fresh medium. Equalized quantities of biomass (e.g., ≧200 OD600 units) were harvested by centrifugation and re-suspended in ˜10 mL of fermentation medium to yield a cell density of OD600≧20. In addition to the target high sugar concentration (e.g., 300 g/L glucose), the fermentation medium optionally contained the supplements under study (e.g., 50 mM K—Pi) and were the first time cells were exposed to modified ionic conditions.
(§2) Fermentations were conducted micro-aerobically: tube-based cultures had at least an equal volume of headspace and were capped snugly with snap-on plastic tops but not sealed with Parafilm. Samples were taken every ˜24 h over the course of 1-4 d; for simplicity, however, several figures display bar graphs of steady state or near steady state ethanol titers (e.g., FIGS. 5A-D). Typically, 16-20 μL were removed and diluted appropriately for measurement of cell density at OD600, another 20 μL for quantification of cell viability by methylene blue staining (see below), and a final 0.5 mL pelleted and the supernatant saved for determination of ethanol concentration.

Strain BY4743 = assay: Intracellular pH by ratiometric pHluorin after ethanol shock; type: cell-based, Saccharomyces cerevisiae; settings: for counteraction of the ethanol-mediated pH drop: supplementation of medium
Method: Strain BY4743 (WT) was transformed with p416TEF-pHluorin and grown overnight in 1×YSC-URA containing 200 g/L glucose and any indicated supplements. Equal amounts of yeast biomass were washed and transferred into respective fresh medium containing the indicated concentrations of ethanol, incubated at room temperature for 30 min, and measured for fluorescence emission. The ratio of intensities emitted from excitation at 395 nm and 475 nm ([…]) is directly proportional to pH.
To assess pHi, fluorescence intensities from strains carrying a centromeric plasmid expressing ratiometric pHluorin (LAMy178) or empty vector (LAMy96) were measured in a Tecan Safire^2™ microplate reader using excitation wavelengths of 395 nm and 475 nm, and common emission wavelength of 508 nm. Samples, all normalized for cell density, of 140 μL were aliquoted in duplicate to a 96-well black-walled, clear-bottom plate (Costar #3631), and the readings of the replicates averaged. Autofluorescence was removed by subtracting measurements of LAMy96 from LAMy178, both treated under identical conditions. The ratio of the intensities emitted by excitation at 395 nm to that by excitation at 475 nm is directly proportional to pHi; ratios in the 0.5-1.2 range roughly correspond to pH values of ˜5.5-7 (Orij, R., et al. Microbiology (Reading, Engl) 155, 268-278 (2009)).

H131-A3-AL^CS = assay: High cell density xylose fermentation; type: cell-based, Saccharomyces cerevisiae; settings: K—Pi supplementation, 100 g/L xylose
Method: Furthermore, altering the medium to augment membrane gradients enhanced ethanol production not only from glucose, but from xylose, an abundant carbon source from lignocellulosic feedstocks that cannot be metabolized by unmodified S. cerevisiae^23. Therefore K—Pi supplementation was tested on H131-A3-AL^CS, a strain incorporating the Piromyces XYLA isomerase and P. stipitis XYL3 xylulokinase, and optimized to consume xylose^24. In high cell density, high xylose-only (100 g/L) fermentations, increases of ˜70% in both ethanol titer and productivity were found (FIG. 5D). […]
To build yeast biomass and osmotically adapt cells for high cell density and high sugar fermentations, starter cultures consisting of the unmodified base medium (i.e., 1×YSC or YSC-URA) and ˜0.3× the target fermentation sugar concentration (e.g., 100 g/L glucose) were grown until saturation, pelleted by centrifugation, and the entire cell mass used to inoculate a second “pre-fermentation” culture containing ˜0.5-0.6× the target sugar concentration (e.g., 150 g/L glucose). Pre-fermentation cultures were grown until saturation and their cell densities determined by absorbance at 600 nm of an appropriate dilution made using fresh medium. Equalized quantities of biomass (e.g., ≧200 OD600 units) were harvested by centrifugation and re-suspended in ˜10 mL of fermentation medium to yield a cell density of OD600≧20. […]

strain FY4/5 (S288C) = type: cell-based, Saccharomyces cerevisiae
[2] = test system: laboratory strain (S288C); type: cell-based, Saccharomyces cerevisiae; settings: for effect on ethanol output among additives screened: additives to 1×YSC, 300 g/L glucose (FIG. 7)
Method: (§3) To explore how ionic composition of the culture medium affects ethanol performance, chemically defined conditions were necessary which precluded, in some instances, the use of rich formulas such as yeast extract-peptone-dextrose (YEPD) medium or those containing corn steep liquor. […] After the addition of a carbon source and any ionic supplements, all medium were adjusted to pH 3.8 (i.e., the equilibrium pH from the addition of 50 mM K—Pi to 1×YSC), if necessary, using KOH, typically requiring <400 μM. Cultures were incubated at 30° C.: flask cultures (>25 mL) were agitated on a platform shaker at 200 RPM and smaller cultures in glass tubes on a roller drum at the maximum rotational setting.
as §1, §2
Ethanol concentrations were determined using one of the following two methods; for consistency, however, all samples deriving from a single experiment were assayed exclusively using one method. […] Absorbances of NADH at 340 nm were blanked against a reaction with ddH2O, measured using an Ultrospec 2100 pro UV/Visible spectrophotometer (GE Healthcare Life Sciences), and normalized against the absorbance of the control solution (“bottle 4”) to determine ethanol concentrations.
To determine final concentrations, peak areas auto-determined by the Agilent Chemstation for LC software were interpolated off a standard curve consisting of 0-20% ethanol (by volume) prepared in 1×YSC medium.
Images were recorded using a SPOT Insight 2 MP Firewire color camera with SPOT 5.0 software, and analyzed offline.
For each image, the number of unstained (clear) cells was quantified along with the total number (clear+stained) of cells, and the fraction of live cells determined by taking the quotient of the two. Fractions of viable cells were determined for 3-4 images per sample and used to calculate error statistics for the technical replicates (e.g., FIGS. 2A, 2B, 8A). Mean OD600 absorbance values were multiplied by their respective mean viable fractions to arrive at the underlying viable population in OD600 units (e.g., FIG. 1B, 3B).
To calculate ethanol productivities per viable cell, rates of increase in ethanol titer were normalized by the average viable OD600 during the corresponding period (FIG. 1A): […]

S288C = settings: YP diluted to 20%
Method: as §3

[3] = cited from earlier work; for Specific activity: on PNPC

## OCc1ccco1 [furfuryl alcohol]
yeast
  tolerance by yeast compared to furfural: much better tolerated

## O=P([O-])(O)O.[K+] [K—Pi, potassium phosphate monobasic]
[1]
  ethanol output titers (near the molar conversion limit): ~150 g/L
Strain BY4743
  counteraction of the ethanol-mediated pH drop: not capable of counteracting
H131-A3-AL^CS
  increase in ethanol productivity: ~70%
  increase in ethanol titer: ~70%
Strain FY4/5 (S288C); 10-20% ethanol, 300 g/L glucose, 50 mM K—Pi vs unmodified medium
  survival after ethanol shock: survival was indeed enhanced
Strain FY4/5 (S288C); steps of isobutanol, 300 g/L glucose, elevated K—Pi
  survival after isobutanol shock: reduced rate of survival
Strain FY4/5 (S288C); steps of isopropanol, 300 g/L glucose, K—Pi supplementation
  viability after isopropanol shock: viability was similarly enhanced
[2]; 50 mM K—Pi added to 1×YSC, 300 g/L glucose, initial OD600 20-30, vs unmodified medium
  rise in ethanol output: > 50%
[2]; 50 mM K—Pi, 4-day culture, 300 g/L glucose
  final ethanol titer: ~140 g/L
[2]
  effect on ethanol output among additives screened: largest improvement
[2]; elevated K—Pi vs unmodified medium
  specific ethanol productivity (rate normalized by mean live population): remained unchanged
[2]; high K—Pi vs unmodified medium
  additional yeast biomass: ~25%

## CCO [ethanol]
Strain BY4743; shocks of increasing ethanol concentration
  effect on intracellular pH: decreased intracellular pH in a dose-dependent fashion

## O=P([O-])(O)O.[Na+] [Na—Pi, monosodium phosphate]
[2]
  effect on ethanol output among additives screened: improves ethanol titer over NaCl

## O=Cc1ccc(CO)o1 [HMF, hydroxymethylfurfural]
yeast; 120 mM
  inhibition compared to the unsupplemented control: 10%

## [K+] [K^+]
S288C; addition of K+, pH 6, SD
  enhancement of ethanol output: 17±2.5%
S288C; pH 3.7, addition of K+
  restoration of ethanol titers: 47±2.5%
S288C; pH 3.7, addition of K+, SD
  ethanol titer: 109 ± 1.8 g/L
Strain FY4/5 (S288C); 5 g/L glucose, K+ supplementation combined with higher pH (5.3 vs. 3.9)
  resistance to isobutanol: capable of enhancing resistance to isobutanol

## [Cl-].[K+] [KCl, potassium chloride]
Strain BY4743
  counteraction of the ethanol-mediated pH drop: not capable of counteracting
Strain FY4/5 (S288C); 5 g/L glucose, additional KCl alone
  viability after isobutanol shock: insufficient to improve viability
[2]
  effect on ethanol output among additives screened: largest enhancement within the panel of chloride salts tested
[2]; varied amount of KCl (10-75 mM) in synthetic medium
  effect on ethanol output and viability during fermentation: dose-dependent improvements

B1: Cellulomonas fimi cex: CBHI group cellulase expressed in S. cerevisiae (protein, UniProt P07986 42-484, looked up)
Exoglucanase/xylanase: ATTLKEAADGAGRDFGFALDPNRLSEAQYKAIADSEFNLVVAENAMKWDATEPSQNSFSFGAGDRVASYAADTGKELYGHTLVWHSQLPDWAKNLNGSAFESAMVNHVTKVADHFEGKVASWDVVNEAFADGDGPPQDSAFQQKLGNGYIETAFRAARAADPTAKLCINDYNVEGINAKSNSLYDLVKDFKARGVPLDCVGFQSHLIVGQVPGDFRQNLQRFADLGVDVRITELDIRMRTPSDATKLATQAADYKKVVQACMQVTRCQGVTVWGITDKYSWVPDVFPGEGAALVWDASYAKKPAYAAVMEAFGASPTPTPTTPTPTPTTPTPTPTSGPAGCQVLWGVNQWNTGFTANVTVKNTSSAPVDGWTLTFSFPSGQQVTQAWSSTVTQSGSAVTVRNAPWNGSIPAGGTAQFGFNGSHTGTNAAPTAFSLNGTPCTVG
[3]; PNPC
  activity measured per L culture broth: 8 U/L,
  activity per dry cell weight: ~1.0 U/g DCW (PNPC)
[3]
  Specific activity: 3 U/mg

B2: Cellulomonas fimi Exg (cex): CBHI group cellulase expressed in S. cerevisiae (protein, UniProt P07986 42-484, looked up)
Exoglucanase/xylanase: ATTLKEAADGAGRDFGFALDPNRLSEAQYKAIADSEFNLVVAENAMKWDATEPSQNSFSFGAGDRVASYAADTGKELYGHTLVWHSQLPDWAKNLNGSAFESAMVNHVTKVADHFEGKVASWDVVNEAFADGDGPPQDSAFQQKLGNGYIETAFRAARAADPTAKLCINDYNVEGINAKSNSLYDLVKDFKARGVPLDCVGFQSHLIVGQVPGDFRQNLQRFADLGVDVRITELDIRMRTPSDATKLATQAADYKKVVQACMQVTRCQGVTVWGITDKYSWVPDVFPGEGAALVWDASYAKKPAYAAVMEAFGASPTPTPTTPTPTPTTPTPTPTSGPAGCQVLWGVNQWNTGFTANVTVKNTSSAPVDGWTLTFSFPSGQQVTQAWSSTVTQSGSAVTVRNAPWNGSIPAGGTAQFGFNGSHTGTNAAPTAFSLNGTPCTVG
[3]; PNPC
  activity measured per L culture broth: 45 U/L (PNPC)
[3]
  Specific activity: 3.6 (PNPC) U/mg
